# Test results as given in the supplement of paper PMC8671470.
# System: myeloid leukemia patient primary cells Pat.3
# Assay: area under dose-response curve (viability, 1 nM-10 uM) (fraction (0-1)); higher = more sensitive
# Settings: 72 h
# Method: (§1)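 AUC (0–1, higher = more sensitive) of the 5-point dose–response (1 nM–10 µM, 72 h, CellTiter-Glo) in primary AML/CML patient mononuclear cells. 0.030103 is the floor for inactive compounds.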
row,Structure (SMILES),area under dose-response curve
1,CN(CCOc1ccc(Cc2sc(O)nc2O)cc1)c1ccccn1 [Rosiglitazone],0.0764

# System: myeloid leukemia patient primary cells Pat.10
# Assay: as above
# Settings: 72 h
# Method: as §1
row,Structure (SMILES),area under dose-response curve
1,O=c1cc(N2CCOCC2)oc2c(-c3ccccc3)cccc12,0.771
2,Cn1cc(-c2ccncc2)c(-c2ccc(OCc3ccc4ccccc4n3)cc2)n1,0.163
3,O=C(O)CC[N+](=O)[O-] [3-nitropropionic acid],0.0892
4,O=C(/C=C/c1ccc(O)c(O)c1)OCCc1ccccc1 [Caffeic acid phenethyl ester],0.539
5,c1cc(-c2cnn3cc(-c4ccc(OCCN5CCCCC5)cc4)cnc23)ccn1 [Dorsomorphin],0.342
6,CN(Cc1cnc2nc(N)nc(N)c2n1)c1ccc(C(=O)N[C@@H](CCC(=O)O)C(=O)O)cc1 [Methotrexate],0.294
7,CN(CCOc1ccc(Cc2sc(O)nc2O)cc1)c1ccccn1 [Rosiglitazone],0.0632

# System: myeloid leukemia patient primary cells Pat.4
# Assay: as above
# Settings: 72 h
# Method: as §1
row,Structure (SMILES),area under dose-response curve
1,O=c1cc(N2CCOCC2)oc2c(-c3ccccc3)cccc12,0.18
2,O=C1C(SCCO)=C(SCCO)C(=O)c2ccccc21,0.354
3,Cn1cc(-c2ccncc2)c(-c2ccc(OCc3ccc4ccccc4n3)cc2)n1,< 0.0301
4,O=C(O)CC[N+](=O)[O-] [3-nitropropionic acid],0.113
5,O=C(/C=C/c1ccc(O)c(O)c1)OCCc1ccccc1 [Caffeic acid phenethyl ester],0.328
6,CCN(CC)C(=S)SSC(=S)N(CC)CC [Disulfiram],0.373
7,c1cc(-c2cnn3cc(-c4ccc(OCCN5CCCCC5)cc4)cnc23)ccn1 [Dorsomorphin],0.182
8,CN(Cc1cnc2nc(N)nc(N)c2n1)c1ccc(C(=O)N[C@@H](CCC(=O)O)C(=O)O)cc1 [Methotrexate],< 0.0301
9,CN(CCOc1ccc(Cc2sc(O)nc2O)cc1)c1ccccn1 [Rosiglitazone],< 0.0301

# System: myeloid leukemia patient primary cells Pat.12
# Assay: as above
# Settings: 72 h
# Method: as §1
row,Structure (SMILES),area under dose-response curve
1,O=c1cc(N2CCOCC2)oc2c(-c3ccccc3)cccc12,< 0.0301
2,O=C1C(SCCO)=C(SCCO)C(=O)c2ccccc21,0.385
3,Cn1cc(-c2ccncc2)c(-c2ccc(OCc3ccc4ccccc4n3)cc2)n1,< 0.0301
4,O=C(O)CC[N+](=O)[O-] [3-nitropropionic acid],0.0457
5,O=C(/C=C/c1ccc(O)c(O)c1)OCCc1ccccc1 [Caffeic acid phenethyl ester],0.201
6,CCN(CC)C(=S)SSC(=S)N(CC)CC [Disulfiram],0.485
7,c1cc(-c2cnn3cc(-c4ccc(OCCN5CCCCC5)cc4)cnc23)ccn1 [Dorsomorphin],< 0.0301
8,CN(Cc1cnc2nc(N)nc(N)c2n1)c1ccc(C(=O)N[C@@H](CCC(=O)O)C(=O)O)cc1 [Methotrexate],< 0.0301
9,CN(CCOc1ccc(Cc2sc(O)nc2O)cc1)c1ccccn1 [Rosiglitazone],< 0.0301

# System: myeloid leukemia patient primary cells Pat.11
# Assay: as above
# Settings: 72 h
# Method: as §1
row,Structure (SMILES),area under dose-response curve
1,O=c1cc(N2CCOCC2)oc2c(-c3ccccc3)cccc12,0.0446
2,O=C1C(SCCO)=C(SCCO)C(=O)c2ccccc21,0.355
3,Cn1cc(-c2ccncc2)c(-c2ccc(OCc3ccc4ccccc4n3)cc2)n1,< 0.0301
4,O=C(O)CC[N+](=O)[O-] [3-nitropropionic acid],< 0.0301
5,O=C(/C=C/c1ccc(O)c(O)c1)OCCc1ccccc1 [Caffeic acid phenethyl ester],0.14
6,CCN(CC)C(=S)SSC(=S)N(CC)CC [Disulfiram],0.374
7,c1cc(-c2cnn3cc(-c4ccc(OCCN5CCCCC5)cc4)cnc23)ccn1 [Dorsomorphin],0.106
8,CN(Cc1cnc2nc(N)nc(N)c2n1)c1ccc(C(=O)N[C@@H](CCC(=O)O)C(=O)O)cc1 [Methotrexate],< 0.0301
9,CN(CCOc1ccc(Cc2sc(O)nc2O)cc1)c1ccccn1 [Rosiglitazone],< 0.0301

# System: myeloid leukemia patient primary cells Pat.7
# Assay: as above
# Settings: 72 h
# Method: as §1
row,Structure (SMILES),area under dose-response curve
1,O=c1cc(N2CCOCC2)oc2c(-c3ccccc3)cccc12,< 0.0301
2,O=C1C(SCCO)=C(SCCO)C(=O)c2ccccc21,0.45
3,Cn1cc(-c2ccncc2)c(-c2ccc(OCc3ccc4ccccc4n3)cc2)n1,0.309
4,O=C(O)CC[N+](=O)[O-] [3-nitropropionic acid],0.058
5,O=C(/C=C/c1ccc(O)c(O)c1)OCCc1ccccc1 [Caffeic acid phenethyl ester],0.323
6,CCN(CC)C(=S)SSC(=S)N(CC)CC [Disulfiram],0.153
7,c1cc(-c2cnn3cc(-c4ccc(OCCN5CCCCC5)cc4)cnc23)ccn1 [Dorsomorphin],0.0504
8,CN(Cc1cnc2nc(N)nc(N)c2n1)c1ccc(C(=O)N[C@@H](CCC(=O)O)C(=O)O)cc1 [Methotrexate],0.399
9,CN(CCOc1ccc(Cc2sc(O)nc2O)cc1)c1ccccn1 [Rosiglitazone],< 0.0301

# System: myeloid leukemia patient primary cells Pat.1
# Assay: as above
# Settings: 72 h
# Method: as §1
row,Structure (SMILES),area under dose-response curve
1,O=c1cc(N2CCOCC2)oc2c(-c3ccccc3)cccc12,0.14
2,O=C1C(SCCO)=C(SCCO)C(=O)c2ccccc21,0.378
3,Cn1cc(-c2ccncc2)c(-c2ccc(OCc3ccc4ccccc4n3)cc2)n1,< 0.0301
4,O=C(O)CC[N+](=O)[O-] [3-nitropropionic acid],0.0529
5,O=C(/C=C/c1ccc(O)c(O)c1)OCCc1ccccc1 [Caffeic acid phenethyl ester],0.155
6,CCN(CC)C(=S)SSC(=S)N(CC)CC [Disulfiram],0.398
7,c1cc(-c2cnn3cc(-c4ccc(OCCN5CCCCC5)cc4)cnc23)ccn1 [Dorsomorphin],0.142
8,CN(Cc1cnc2nc(N)nc(N)c2n1)c1ccc(C(=O)N[C@@H](CCC(=O)O)C(=O)O)cc1 [Methotrexate],< 0.0301
9,CN(CCOc1ccc(Cc2sc(O)nc2O)cc1)c1ccccn1 [Rosiglitazone],< 0.0301

# System: myeloid leukemia patient primary cells Pat.13
# Assay: as above
# Settings: 72 h
# Method: as §1
row,Structure (SMILES),area under dose-response curve
1,O=c1cc(N2CCOCC2)oc2c(-c3ccccc3)cccc12,0.0372
2,O=C1C(SCCO)=C(SCCO)C(=O)c2ccccc21,0.147
3,Cn1cc(-c2ccncc2)c(-c2ccc(OCc3ccc4ccccc4n3)cc2)n1,0.067
4,O=C(O)CC[N+](=O)[O-] [3-nitropropionic acid],0.0548
5,O=C(/C=C/c1ccc(O)c(O)c1)OCCc1ccccc1 [Caffeic acid phenethyl ester],0.082
6,CCN(CC)C(=S)SSC(=S)N(CC)CC [Disulfiram],0.412
7,c1cc(-c2cnn3cc(-c4ccc(OCCN5CCCCC5)cc4)cnc23)ccn1 [Dorsomorphin],0.195
8,CN(Cc1cnc2nc(N)nc(N)c2n1)c1ccc(C(=O)N[C@@H](CCC(=O)O)C(=O)O)cc1 [Methotrexate],< 0.0301
9,CN(CCOc1ccc(Cc2sc(O)nc2O)cc1)c1ccccn1 [Rosiglitazone],< 0.0301

# System: myeloid leukemia patient primary cells Pat.14
# Assay: as above
# Settings: 72 h
# Method: as §1
row,Structure (SMILES),area under dose-response curve
1,O=c1cc(N2CCOCC2)oc2c(-c3ccccc3)cccc12,0.0381
2,O=C1C(SCCO)=C(SCCO)C(=O)c2ccccc21,0.421
3,Cn1cc(-c2ccncc2)c(-c2ccc(OCc3ccc4ccccc4n3)cc2)n1,0.183
4,O=C(O)CC[N+](=O)[O-] [3-nitropropionic acid],0.112
5,O=C(/C=C/c1ccc(O)c(O)c1)OCCc1ccccc1 [Caffeic acid phenethyl ester],0.242
6,CCN(CC)C(=S)SSC(=S)N(CC)CC [Disulfiram],0.19
7,c1cc(-c2cnn3cc(-c4ccc(OCCN5CCCCC5)cc4)cnc23)ccn1 [Dorsomorphin],< 0.0301
8,CN(Cc1cnc2nc(N)nc(N)c2n1)c1ccc(C(=O)N[C@@H](CCC(=O)O)C(=O)O)cc1 [Methotrexate],0.306
9,CN(CCOc1ccc(Cc2sc(O)nc2O)cc1)c1ccccn1 [Rosiglitazone],< 0.0301

# System: myeloid leukemia patient primary cells Pat.2
# Assay: as above
# Settings: 72 h
# Method: as §1
row,Structure (SMILES),area under dose-response curve
1,O=c1cc(N2CCOCC2)oc2c(-c3ccccc3)cccc12,0.0446
2,O=C1C(SCCO)=C(SCCO)C(=O)c2ccccc21,0.234
3,Cn1cc(-c2ccncc2)c(-c2ccc(OCc3ccc4ccccc4n3)cc2)n1,< 0.0301
4,CCN(CC)C(=S)SSC(=S)N(CC)CC [Disulfiram],0.512
5,c1cc(-c2cnn3cc(-c4ccc(OCCN5CCCCC5)cc4)cnc23)ccn1 [Dorsomorphin],< 0.0301
6,CN(CCOc1ccc(Cc2sc(O)nc2O)cc1)c1ccccn1 [Rosiglitazone],< 0.0301

# System: myeloid leukemia patient primary cells Pat.8
# Assay: as above
# Settings: 72 h
# Method: as §1
row,Structure (SMILES),area under dose-response curve
1,O=C1C(SCCO)=C(SCCO)C(=O)c2ccccc21,0.174
2,Cn1cc(-c2ccncc2)c(-c2ccc(OCc3ccc4ccccc4n3)cc2)n1,< 0.0301
3,O=C(O)CC[N+](=O)[O-] [3-nitropropionic acid],< 0.0301
4,O=C(/C=C/c1ccc(O)c(O)c1)OCCc1ccccc1 [Caffeic acid phenethyl ester],0.297
5,CCN(CC)C(=S)SSC(=S)N(CC)CC [Disulfiram],0.503
6,CN(Cc1cnc2nc(N)nc(N)c2n1)c1ccc(C(=O)N[C@@H](CCC(=O)O)C(=O)O)cc1 [Methotrexate],< 0.0301
7,CN(CCOc1ccc(Cc2sc(O)nc2O)cc1)c1ccccn1 [Rosiglitazone],< 0.0301

# System: myeloid leukemia patient primary cells Pat.6
# Assay: as above
# Settings: 72 h
# Method: as §1
row,Structure (SMILES),area under dose-response curve
1,O=c1cc(N2CCOCC2)oc2c(-c3ccccc3)cccc12,< 0.0301
2,O=C1C(SCCO)=C(SCCO)C(=O)c2ccccc21,0.187
3,O=C(O)CC[N+](=O)[O-] [3-nitropropionic acid],0.0437
4,O=C(/C=C/c1ccc(O)c(O)c1)OCCc1ccccc1 [Caffeic acid phenethyl ester],0.168
5,CCN(CC)C(=S)SSC(=S)N(CC)CC [Disulfiram],0.414
6,c1cc(-c2cnn3cc(-c4ccc(OCCN5CCCCC5)cc4)cnc23)ccn1 [Dorsomorphin],< 0.0301
7,CN(Cc1cnc2nc(N)nc(N)c2n1)c1ccc(C(=O)N[C@@H](CCC(=O)O)C(=O)O)cc1 [Methotrexate],< 0.0301
8,CN(CCOc1ccc(Cc2sc(O)nc2O)cc1)c1ccccn1 [Rosiglitazone],< 0.0301

# System: myeloid leukemia patient primary cells Pat.9
# Assay: as above
# Settings: 72 h
# Method: as §1
row,Structure (SMILES),area under dose-response curve
1,O=c1cc(N2CCOCC2)oc2c(-c3ccccc3)cccc12,0.736
2,O=C1C(SCCO)=C(SCCO)C(=O)c2ccccc21,0.455
3,Cn1cc(-c2ccncc2)c(-c2ccc(OCc3ccc4ccccc4n3)cc2)n1,0.694
4,O=C(O)CC[N+](=O)[O-] [3-nitropropionic acid],0.148
5,O=C(/C=C/c1ccc(O)c(O)c1)OCCc1ccccc1 [Caffeic acid phenethyl ester],0.563
6,CCN(CC)C(=S)SSC(=S)N(CC)CC [Disulfiram],0.257
7,c1cc(-c2cnn3cc(-c4ccc(OCCN5CCCCC5)cc4)cnc23)ccn1 [Dorsomorphin],0.488
8,CN(Cc1cnc2nc(N)nc(N)c2n1)c1ccc(C(=O)N[C@@H](CCC(=O)O)C(=O)O)cc1 [Methotrexate],0.526
9,CN(CCOc1ccc(Cc2sc(O)nc2O)cc1)c1ccccn1 [Rosiglitazone],0.139

# System: myeloid leukemia patient primary cells Pat.5
# Assay: as above
# Settings: 72 h
# Method: as §1
row,Structure (SMILES),area under dose-response curve
1,O=c1cc(N2CCOCC2)oc2c(-c3ccccc3)cccc12,0.782
2,O=C1C(SCCO)=C(SCCO)C(=O)c2ccccc21,0.455
3,Cn1cc(-c2ccncc2)c(-c2ccc(OCc3ccc4ccccc4n3)cc2)n1,0.938
4,O=C(O)CC[N+](=O)[O-] [3-nitropropionic acid],0.168
5,O=C(/C=C/c1ccc(O)c(O)c1)OCCc1ccccc1 [Caffeic acid phenethyl ester],0.411
6,CCN(CC)C(=S)SSC(=S)N(CC)CC [Disulfiram],0.303
7,c1cc(-c2cnn3cc(-c4ccc(OCCN5CCCCC5)cc4)cnc23)ccn1 [Dorsomorphin],0.508
8,CN(Cc1cnc2nc(N)nc(N)c2n1)c1ccc(C(=O)N[C@@H](CCC(=O)O)C(=O)O)cc1 [Methotrexate],0.384
9,CN(CCOc1ccc(Cc2sc(O)nc2O)cc1)c1ccccn1 [Rosiglitazone],0.0995

# System: myeloid leukemia patient primary cells Pat.15
# Assay: as above
# Settings: 72 h
# Method: as §1
row,Structure (SMILES),area under dose-response curve
1,O=c1cc(N2CCOCC2)oc2c(-c3ccccc3)cccc12,0.136
2,O=C1C(SCCO)=C(SCCO)C(=O)c2ccccc21,0.444
3,Cn1cc(-c2ccncc2)c(-c2ccc(OCc3ccc4ccccc4n3)cc2)n1,< 0.0301
4,O=C(O)CC[N+](=O)[O-] [3-nitropropionic acid],0.123
5,O=C(/C=C/c1ccc(O)c(O)c1)OCCc1ccccc1 [Caffeic acid phenethyl ester],0.145
6,CCN(CC)C(=S)SSC(=S)N(CC)CC [Disulfiram],0.623
7,c1cc(-c2cnn3cc(-c4ccc(OCCN5CCCCC5)cc4)cnc23)ccn1 [Dorsomorphin],0.0705
8,CN(Cc1cnc2nc(N)nc(N)c2n1)c1ccc(C(=O)N[C@@H](CCC(=O)O)C(=O)O)cc1 [Methotrexate],< 0.0301
